Earlier results on 8 compounds are cited in US6335361B1, “Method of treating benign forgetfulness” (Juvenon Inc., priority 1999, dated 2002).

Like-named read-outs stand apart in the source and are kept apart here.

The test system of data set [1] is mitochondria.
The test system of data set [2] is mitochondria. The conditions noted are these: through action in the mitochondria.
Data set [3] concerns oxidative phosphorylation in skeletal muscles and brains. Particulars: patients with mitochondrial cytopathies due to enzyme defects.
For data set [4] the following is noted: daily supplements up to 200 mg for 6-12 months and 100 mg daily for up to 6 y.
For data set [5] the following is noted: woman deficient in Q10, 150 mg/kg.
The subject of the next data set is striatal nerves. Particulars: mice, Q10 diet four weeks before and one week after MPTP.
For data set [6], the system named is human plasma LDL phospholipids. Particulars: healthy Finnish men and women, Q10 supplementation.
The test system of a further data set is mice. Particulars: male mice, life-long supplementation.
The test system of the next data set is oxidant production. Particulars: carnitine supplementation.
For data set [7] the following is noted: men over 60, 5 days.
The conditions of data set [8]: older adults 67-80 years, 8 weeks.

On to `CC(=O)O[C@H](CC(=O)[O-])C[N+](C)(C)C` [ALC, acetyl-L-carnitine], for which, in the data set with mitochondria [1], the “age-related decrease in cardiolipin, mtDNA transcription and membrane potential” value is given as “reverse”; the “age-related dysfunction of carnitine-acetyl-carnitine exchange across the inner mitochondrial membrane” value is recorded as “slow or reverse”.

As for `C[N+](C)(C)C[C@H](O)CC(=O)[O-]` [L-carnitine], in the data set with mitochondria [1], the “age-related decrease in cardiolipin, mtDNA transcription and membrane potential” value is “reverse”; the “age-related dysfunction of carnitine-acetyl-carnitine exchange across the inner mitochondrial membrane” value is given as “slow or reverse”.

For `COC1=C(OC)C(=O)C(C/C=C(\C)CC/C=C(\C)CC/C=C(\C)CC/C=C(\C)CC/C=C(\C)CC/C=C(\C)CC/C=C(\C)CC/C=C(\C)CC/C=C(\C)CCC=C(C)C)=C(C)C1=O` [Q10, Coenzyme Q10], the “programmed cell death, or apoptosis” value in the data set with mitochondria [2] is listed as “appears to block”. In data set [3], the “oxidative phosphorylation in skeletal muscles and brains” value is “marked improvement”. Further, the adverse effects result in data set [4] is recorded as “No important adverse effects”. Further, the clinical response entry in [5] was “rapidly improved”. Also, the “Q10 levels in kidney, heart and brain” value in the data set on rats (Q10 supplementation) was “not affected”. Also, in the data set with rats (male rats, life-long supplementation), the lifespan result is given as “did not prolong or shorten”. Also, the “plasma and liver levels” value in the data set with rats (supplemented rats) is given as 2.6-8.4 times higher. In the data set on striatal nerves, the “dopamine, higher than control diet” value is 37% and the “more dense neurons than control diet” value is 62%. Moreover, the “effect on doxorubicin-induced oxidant production and mtDNA deletions” value with cardiac tissue (cardiac tissue) is listed as “blocks the effects of doxorubicin”. Moreover, the peroxyl radical-trapping capacity entry in [6] is listed as “doubled”. Moreover, the lifespan result in the data set with mice is reported as “did not prolong or shorten”.

Consider `O=C(O)CCCC[C@@H]1CCSS1` [R-α-alipoic acid, R-α-lipoic acid], for which, in the data set on aged rats (aged rats), the “ambulatory activity of aged rats” value is on record as “triple”. In the data set on aged rats (rat, in vivo), the “age-related decline in mitochondrial membrane potential” value is on record as “restore”; the “age-related decrease in oxygen consumption” value was “reverse”; the “age-related increase in oxidants” value is given as “significantly lower”; the “glutathione and ascorbic acid levels” value is “to youthful levels”.

As for `C[N+](C)(C)CC(O)CC(=O)[O-]` (stereo not drawn) [carnitine], in the data set with oxidant production, the cell antioxidants result was “decreased cell antioxidants markedly” and the “increase of oxidant production” value is recorded as 30%.

On to `CN(CC(=O)O)C(=N)N` [creatine], for which the “isokinetic performance and body mass” value in [7] is given as “only small increases”. Moreover, in data set [7], the isometric strength result is “no effect”. For the same compound, in data set [8], the “1- and 12-repetitions maxima, effect of creatine supplementation” value is given as “no beneficial effect”. Moreover, the safety result (1.5 g-25 g/day for at least a year) was “safe”. Also, where the note is “athletes, up to 75 grams a day for years, aside from weight gain”, the adverse effects entry is “without known adverse effects”. Besides, the “skeletal muscle strength and endurance” value (older individuals (40-73), 20 g/day, one week) is reported as “increased”. Also, the time to exhaustion result in the data set on phosphocreatine (PCr) (both groups combined) is “increased”. For the same compound, the “increase of resting PCr” value in the data set on phosphocreatine (PCr) (middle-aged group (50-year-olds), P<0.05) was 30%; in the data set on phosphocreatine (PCr) (young group (30-year-olds), P<0.05) it was 15%. Also, in the data set on phosphocreatine (PCr) (middle-aged group, P<0.05), the “mean initial PCr resynthesis rate” value is listed as “increased significantly”.

As to `COc1cccc2c1C(=O)c1c(O)c3c(c(O)c1C2=O)C[C@@](O)(C(=O)CO)C[C@@H]3O[C@H]1C[C@H](N)[C@H](O)[C@H](C)O1` [doxorubicin], in the data set with cardiac tissue (doxorubicin by itself), the mitochondrial oxidant production entry is given as “stimulates” and the “mtDNA deletions in cardiac tissue” value was “marked increase”.

With `COc1c(O)c(C)c(C/C=C(\C)CC/C=C(\C)CC/C=C(\C)CC/C=C(\C)CC/C=C(\C)CC/C=C(\C)CC/C=C(\C)CC/C=C(\C)CC/C=C(\C)CCC=C(C)C)c(O)c1OC` [ubiquinol-10], in the data set with human lymphocytes, the “oxidative damage to DNA of human lymphocytes” value is recorded as “appears to protect”.
